This is an account of results in patent US11420962B2, “Indene derivatives useful in treating pain and inflammation” (TARO PHARMACEUTICALS INC., priority 2018, dated 2022).

The nature of series [1]: Metabolism by human liver microsomes. Conditions: Table 8; 10 µM, in the presence of NADPH, 1 mg/mL protein. The class given is in vitro ADME. On the procedure: Representative compounds of the invention (i.e., test compounds) and the positive control, 7-ethoxycoumarin, were prepared as stock solutions at 10 mM in DMSO and eventually diluted to 10 μM in the test plate, with an appropriate amount of acetonitrle and tris HCl buffer. Final DMSO and acetonitrile concentrations were […] and 0.5% respectively. NADPH was prepared in tris HCl buffer to a stock of 10 mM. A frozen aliquot of live microsomes was retrieved from the freezer (−80° C.) and thawed by placing the tube on wet ice. After thawing, the tubes were gently mixed and the required amount, transferred to tris HCl buffer. Test compounds or positive control were pre-incubated, separately, for 10 minutes, with liver microsomes (1 mg/mL protein), at 37° C., in 100 mM Tris HCl at pH 7.5. After preincubation the reaction was started by adding 1 mM NADPH (pre-equilibrated to […]) and the reaction allowed to proceed for 60 minutes. At 60 minutes, a 50 μL aliquot was removed and quenched with 200 uL of acetonitrile containing a mixture of internal standards (Tolbutamide (500 ng/mL) and Telmistartan (500 ng/mL)) and vortexed then centrifuged at 4000 rmp for 10 minutes (Eppendorf 5810R). The supernatant was transferred to a 96 well plate for LC-MS/MS analysis.
An LC-MS/MS method was devised for the test compounds and the control, using a AB Sciex API 4000 system coupled to a NEXAR™ UHPLC (Shimadzu) system. Analytes were separated on a Phenomenex Kinetex C18 column (50×2.1 mm, 5 μm) using a gradient that was appropriate for each compound, at a flow rate of 1 ml/minute, utilizing a mobile phase of 0.1% formic acid in MILLI-Q™ water (A) and 0.1% formic acid in acetonitrile (B). The MS instrument was operated in positive mode (ESI+)/negative (ESI−). The multiple reaction monitoring (MRM) transition for test and control compounds was used for the LC-MS/MS analysis. MRM transitions for control compound 7-ethoxycoumarinm were Quadropole 1: 191.0, Quadropole 3: 163.0, dwell time: 75 msec, using curtain gas settings of 5 V, ion-spray voltage of 5500 V, temperature of 50° C. and gas settings for nebulizer and auxiliary set to 30 and 40 psi, respectively. The interface heater was kept on. Entrance potential and collision cell exit potential were varied to tune for a specific compound.
Using a suitable LC-MS/MS method, the percentage of drug remaining at 60 minutes ([…]) was assessed by comparing the average analyte to internal standard area ratio at 60 minutes to the average analyte to internal standard area ratio at 0 time control, as a percentage, from a 5 to 10 μL sample injection.
According to the above assay, the representative compounds listed in Table 8 below were active in the Human liver microsome assay at […] and the % of drug remaining after 60 minutes (PDR60), in the presence of NADPH, was assessed by LC-MS/MS. Average PDR60 for the standard compound, 7-ethoxycoumarin was <=65% in the presence of NADPH. Scoring for the test compounds, in the presence of NADPH, was as follows: “A” represents a PDR^60 of 81 to 100%, “B” represents a PDR^60 of 61 to 80%, “C” represents a PDR^60 of 31 to 60% and “D” represents a PDR^60 of 0 to 30%.
(In general: Liver microsomes are vesicles of endoplasmic reticulum, rich in cytochrome P450 enzymes.)

Another series has as its system Rat DRG. Nature of the series: Rat dorsal root ganglion excitability response (EFS, Ca2+ transients). The class given is cell-based. Conditions: Rattus norvegicus; Table 3; electrical field stimulation, Ca5 indicator; read-out: Scoring (EC50, Rat DRG excitability). On the procedure: Dorsal root ganglions (DRGs) were dissected from adult rats. The tissue was processed, and cells were seeded into call culture plates (48 center wells of one quadrant in 384-well plates) and cultured for 2 days prior to Electrical field stimulation (EFS). To visualize the neuronal excitability response, intracellular Ca^+2 transients were monitored using the Ca^+2 indicator, Ca5. Ca5 was added to the cultures 1 h prior to EFS. Representative test compounds of the invention (i.e., test compounds) and reference compound, tetracaine, were added in concentration-response format encompassing six concentrations, performed in duplicate. The highest concentration tested was typically 30 μM with 1 in 3 dilutions generating the subsequent concentrations.
Effects on DRG excitability by the test compounds and standard were evaluated using four EFS protocols as disclosed in Table 2.
Experimental results were performed using two separate sets of plates using separate test compound and standard dilutions, to provide n=2. In the first set of experiments, compounds were added 24 h prior to EFS to increase the possibility to also detect more long-term compound effects. In the second set of experiments the compounds were added directly prior to EFS. Excitability response to EFS was analyzed as the average fluorescence ratio (peak/baseline) change per well. All plates were evaluated using high content imaging equipment post-EFS, imaging the Ca5 background staining to detect any possible compound-related toxic effects.
Average response by the standard compound, tetracaine, was 4.05 μM.

On to `C=C1CC[C@H]2[C@H](CO)[C@@H]([C@@]3(C)Cc4cn[nH]c4C[C@@H]3CN)CC[C@]12C` [Ia-82, ((3aS,4R,5S,7aS)-5-((5R,6S)-6-(aminomethyl)-5-methyl-4,5,6,7-tetrahydro-1H-indazol-5-yl)-7a-methyl-1-methyleneoctahydro-1H-inden-4-yl)methanol], for which the “Scoring (% of drug remaining after 60 minutes, PDR60)” value in series [1] is on record as “B (a PDR^60 of 61 to 80%)”. The EC50 with Rat DRG lay in the range of 6 to 15 µM.
The matching figures for `C=C1CC[C@H]2[C@H](CN)[C@@H]([C@@]3(C)Cc4cnc(N)nc4C[C@@H]3CO)CC[C@]12C` [Ic-1, ((6R,7S)-2-amino-6-((3aS,4R,5S,7aS)-4-(aminomethyl)-7a-methyl-1-methyleneoctahydro-1H-inden-5-yl)-6-methyl-5,6,7,8-tetrahydroquinazolin-7-yl)methanol]: “A (a PDR^60 of 81 to 100%)” and > 15 µM.
The matching figures for `C=C1CC[C@H]2[C@H](CN)[C@@H]([C@@]3(C)Cc4nccnc4C[C@@H]3CO)CC[C@]12C` [Ib-2, ((6S,7R)-7-((3aS,4R,5S,7aS)-4-(aminomethyl)-7a-methyl-1-methyleneoctahydro-1H-inden-5-yl)-7-methyl-5,6,7,8-tetrahydroquinoxalin-6-yl)methanol]: “B (a PDR^60 of 61 to 80%)” and > 15 µM.
On the same counts, the results for `C=C1CC[C@H]2[C@H](CN)[C@@H]([C@@]3(C)Cc4cn(C(C)(C)C)nc4C[C@@H]3CO)CC[C@]12C` [Ia-13, ((5R,6S)-5-((3aS,4R,5S,7aS)-4-(aminomethyl)-7a-methyl-1-methyleneoctahydro-1H-inden-5-yl)-2-(tert-butyl)-5-methyl-4,5,6,7-tetrahydro-2H-indazol-6-yl)methanol] are “A (a PDR^60 of 81 to 100%)” and 2 to 6 µM.
For the molecule `C=C1CC[C@H]2[C@H](CN)[C@@H]([C@@]3(C)Cc4cnn(C(C)(C)C)c4C[C@@H]3CO)CC[C@]12C` [Ia-12, ((5R,6S)-5-((3aS,4R,5S,7aS)-4-(aminomethyl)-7a-methyl-1-methyleneoctahydro-1H-inden-5-yl)-1-(tert-butyl)-5-methyl-4,5,6,7-tetrahydro-1H-indazol-6-yl)methanol], the “Scoring (% of drug remaining after 60 minutes, PDR60)” value in series [1] is given as “D (a PDR^60 of 0 to 30%)”. Further, the EC50 in the series on Rat DRG lay within 2 to 6 µM.
`C=C1CC[C@H]2[C@H](CN)[C@@H]([C@@]3(C)Cc4cn[nH]c4C[C@@H]3CN3CCOCC3)CC[C@]12C` [Ia-76, ((3aS,4R,5S,7aS)-7a-methyl-5-((5R,6S)-5-methyl-6-(morpholinomethyl)-4,5,6,7-tetrahydro-1H-indazo1-5-yl)-1-methyleneoctahydro-1H-inden-4-yl)methanamine]: the “Scoring (% of drug remaining after 60 minutes, PDR60)” value in series [1] is given as “D (a PDR^60 of 0 to 30%)”. In addition, the EC50 in the series on Rat DRG was in the range of 6 to 15 µM.
On the same counts, the results for `C=C1CC[C@H]2[C@H](CN)[C@@H]([C@@]3(C)Cc4cn(-c5ccccn5)nc4C[C@@H]3CO)CC[C@]12C` [Ia-11, ((5R,6S)-5-((3aS,4R,5S,7aS)-4-(aminomethyl)-7a-methyl-1-methyleneoctahydro-1H-inden-5-yl)-5-methyl-2-(pyridin-2-yl)-4,5,6,7-tetrahydro-2H-indazol-6-yl)methanol] are “B (a PDR^60 of 61 to 80%)” and 2 to 6 µM.
On the same counts, the results for `C[C@H]1CC[C@H]2[C@H](CN)[C@@H]([C@@]3(C)Cc4cn(-c5ccccc5)nc4C[C@@H]3CO)CC[C@]12C` [Ia-36, ((5R,6S)-5-((1S,3aS,4S,5S,7aR)-4-(aminomethyl)-1,7a-dimethyloctahydro-1H-inden-5-yl)-5-methyl-2-phenyl-4,5,6,7-tetrahydro-2H-indazol-6-yl)methanol] are “A (a PDR^60 of 81 to 100%)” and 2 to 6 µM.
In the case of `C=C1CC[C@H]2[C@H](CN)[C@@H]([C@@]3(C)Cc4cn(Cc5ccccc5)nc4C[C@@H]3CO)CC[C@]12C` [Ia-19, ((5R,6S)-5-((3aS,4R,5S,7aS)-4-(aminomethyl)-7a-methyl-1-methyleneoctahydro-1H-inden-5-yl)-2-benzyl-5-methyl-4,5,6,7-tetrahydro-2H-indazol-6-yl)methanol], the “Scoring (% of drug remaining after 60 minutes, PDR60)” value in series [1] is on record as “B (a PDR^60 of 61 to 80%)”. The EC50 in the series with Rat DRG was 2 to 6 µM.
For `C=C1CC[C@H]2[C@H](CN3CCCCC3)[C@@H]([C@@]3(C)Cc4cn[nH]c4C[C@@H]3CO)CC[C@]12C` [Ia-47, ((5R,6S)-5-methyl-5-((3aS,4R,5S,7aS)-7a-methyl-1-methylene-4-(piperidin-1-ylmethyl)octahydro-1H-inden-5-yl)-4,5,6,7-tetrahydro-1H-indazol-6-yl)methanol], the “Scoring (% of drug remaining after 60 minutes, PDR60)” value in series [1] was “D (a PDR^60 of 0 to 30%)”. Also, the 50% effective concentration (EC50) in the series with Rat DRG was in the range of 6 to 15 µM.
Take `C=C1CC[C@H]2[C@H](CO)[C@@H]([C@@]3(C)Cc4cn[nH]c4C[C@@H]3CN3CCOCC3)CC[C@]12C` [Ia-72, ((3aS,4R,5S,7aS)-7a-methyl-5-((5R,6S)-5-methyl-6-(morpholinomethyl)-4,5,6,7-tetrahydro-1H-indazol-5-yl)-1-methyleneoctahydro-1H-inden-4-yl)methanol]: the “Scoring (% of drug remaining after 60 minutes, PDR60)” value in series [1] is recorded as “D (a PDR^60 of 0 to 30%)”. The EC50 with Rat DRG was > 15 µM.
The matching figures for `C=C1CC[C@H]2[C@H](CN)[C@@H]([C@@]3(C)Cc4cncnc4C[C@@H]3CO)CC[C@]12C` [Ic-3, ((6R,7S)-6-((3aS,4R,5S,7aS)-4-(aminomethyl)-7a-methyl-1-methyleneoctahydro-1H-inden-5-yl)-6-methyl-5,6,7,8-tetrahydroquinazolin-7-yl)methanol]: “A (a PDR^60 of 81 to 100%)” and > 15 µM.
The matching figures for `C=C1CC[C@H]2[C@H](CN)[C@@H]([C@@]3(C)Cc4cc[nH]c4C[C@@H]3CO)CC[C@]12C` [Id-1, ((5R,6S)-5-((3aS,4R,5S,7aS)-4-(aminomethyl)-7a-methyl-1-methyleneoctahydro-1H-inden-5-yl)-5-methyl-4,5,6,7-tetrahydro-1H-indol-6-yl)methanol]: “C (a PDR^60 of 31 to 60%)” and 6 to 15 µM.
The matching figures for `C[C@H]1CC[C@H]2[C@H](CN)[C@@H]([C@@]3(C)Cc4cn(C(C)(C)C)nc4C[C@@H]3CO)CC[C@]12C` [Ia-41, ((5R,6S)-5-((1S,3aS,4S,5S,7aR)-4-(aminomethyl)-1,7a-dimethyloctahydro-1H-inden-5-yl)-2-(tert-butyl)-5-methyl-4,5,6,7-tetrahydro-2H-indazol-6-yl)methanol]: “A (a PDR^60 of 81 to 100%)” and < 2 µM.
For the molecule `C=C1CC[C@H]2[C@H](CN3CCN(C)CC3)[C@@H]([C@@]3(C)Cc4cn[nH]c4C[C@@H]3CO)CC[C@]12C` [Ia-48, ((5R,6S)-5-methyl-5-((3aS,4R,5S,7aS)-7a-methyl-1-methylene-4-((4-methylpiperazin-1-yl)methyl)octahydro-1H-inden-5-yl)-4,5,6,7-tetrahydro-1H-indazol-6-yl)methanol], the “Scoring (% of drug remaining after 60 minutes, PDR60)” value in series [1] is reported as “D (a PDR^60 of 0 to 30%)”. Moreover, the EC50 in the series on Rat DRG was 6 to 15 µM.

As usually defined, the EC50 is the concentration needed to bring the measured effect to its halfway point.
